Here are results for 86 compounds from a melting point compilation (Tetko et al.; mined from patent text by program, amines drawn as free bases though some values may be those of a salt).

As a reminder, the melting point is the temperature, or range, at which the solid turns liquid. Compound `O=C(c1ccc(-c2ccccc2)cc1)c1ccc([N+](=O)[O-])cc1` showed a melting point of 174 to 176 °C. The result for `C#CCn1ccc2ccccc2c1=O` reads 104 to 105 °C. The compound `O=C(CCO)Nc1cccc(-c2ccc3c(c2)C(c2ccc(Cl)cc2Cl)CC3)c1` (stereo unspecified) registered a melting point of 202 to 203 °C. For `O=C(Nc1ccc(Cl)c(C(F)(F)F)c1)Oc1ccc2c(c1)CCCN2Cc1ccccc1`, the melting point is 151 °C. The result for `CC(=O)CC1=C(C#N)C(c2cccc(C#N)c2Br)c2c[nH]nc2N1` (stereo unspecified) reads 230 °C; that for `COc1ccn2nc(-c3ccccc3F)c(-c3ccc(=O)n(C)n3)c2c1`, 220 to 222 °C; that for `Cc1ccc(S(=O)(=O)CCC2OCCO2)cc1`, 78 to 80 °C. The result for `CC(C)Oc1ccc(CCCOc2cc(CCC(=O)O)n(-c3ccccc3)n2)c(OCc2ccc(Cl)cc2Cl)c1` reads 139 to 141 °C. On to `CON=C1CSc2cccc(Cl)c2CN1`, for which the melting point lay in the range of 120 to 121 °C.

Compound `Cc1ccc(-c2cc3ccccc3[nH]2)cc1` came in with a melting point of 213 to 215 °C.

`O=C(NC[C@@H](C(=O)NO)N1CCCCC1)c1ccc(OCc2ccnc(-c3ccccc3)c2)cc1`: the melting point amounted to 177 °C. The compound `CCOC1=NN(C)C(=O)C1` gave a melting point of 79 to 80 °C.

`O=C(/C=C/C=C(c1ccccc1)c1ccccc1)Oc1ccc([N+](=O)[O-])cc1` came in with a melting point of 113 to 115 °C.

`O=C(Cl)CN1C(=O)c2ccc([N+](=O)[O-])cc2C1=O` yielded a melting point of 129 to 130 °C. In the case of `COc1ccc(-c2cc(F)ccc2C#N)cc1`, the melting point is 145 to 147 °C. With `CCC(CC)N(OCc1ccccc1)C(=O)Nc1ccccc1`, the melting point fell in the range of 45 to 45.6 °C.

`CCOC(=O)C(=O)Nc1cccc(N(C)C)c1C#N` gave a melting point of 124 to 126 °C. For `O=[N+]([O-])c1ccc(N2CCN(Cc3ccccc3)CC2)cc1CS(=O)(=O)c1ccccc1`, the melting point was 145 to 146 °C. Regarding `CCOC(=O)C1=C(CC)N(CCOC(=O)c2ccccc2)C(=O)NC1c1ccccc1` (stereo unspecified), the melting point is 111 °C. On to `C[C@@H]1N(C(=O)OC(C)(C)C)C(=O)C[C@]1(C)O`, for which the melting point lay within 122 to 125 °C. The result for `N#Cc1cc(C(=O)O)ccc1F` reads 177 to 178 °C. Turning to `Cc1cc(-c2cc3cc(OCCNC[C@H](O)c4cccc(C(F)(F)F)c4)ccc3o2)no1`, the melting point lay in the range of 126 to 127 °C. The result for `COc1ccc(C2=NN(CCCCBr)C(=O)[C@H]3CC=CC[C@@H]23)cc1OC` (relative stereo) reads 102 to 103 °C; that for `COc1ccc(N2CCN(c3c(C)c(C)c4c(c3C)C(O)(c3ccc5ccccc5c3)C(C)(C)O4)CC2)cc1` (stereo unspecified), 189 to 190 °C; that for `CCOC(=O)CCCn1c(=O)n(CCN2CCN(c3ccccc3OC)CC2)c(=O)c2cscc21`, 108 to 110 °C.

`O=C(NCc1cccnc1)c1ccc2n1Cc1ccccc1N(C(=O)c1ccc(-c3ccccc3CN3CCCC3)cc1)C2` returned a melting point of 210 to 212 °C. The same measure for `CC(C)c1cccc(NC(=O)c2ccccc2C(F)(F)F)c1`: 87.5 to 88.5 °C; for `CN1C2CCC1CC(c1n[nH]c3cc(F)ccc13)C2` (stereo unspecified): 235 to 236 °C. With `Nc1c(I)c(-c2ccccc2)nn1-c1c(Cl)cc(C(F)(F)F)cc1Cl`, the melting point was in the range of 162 to 164 °C.

`CS(=O)c1nc(O)nn1-c1ccccc1` (stereo unspecified) had a melting point of 180 to 182 °C.

`CC(C)C[C@H](NC(=O)OC(C)(C)C)C(=O)C=[N+]=[N-]`: the melting point lay in the range of 72 to 74 °C.

`O=P(O)(O)Cc1cc(Cl)c(Oc2ccc(O)c(Cc3ccc(F)cc3)c2)c(Cl)c1` had a melting point of 207 to 210 °C. The same measure for `CCn1nc(-c2cccs2)c(C(=O)OCCOC(C)=O)c(Nc2cnccc2C)c1=O`: 161 to 162 °C; for `CCOC(=O)C1=C(COCC(O)CCO)NC(C)=C(C(=O)OC)C1c1cccc(Cl)c1Cl` (stereo unspecified): 86 to 89 °C. Regarding `CC(C)(C)OC(=O)c1ccc(C(=O)N[C@H]2CN3C(=O)N(c4cc(Cl)cc(Cl)c4)C(=O)[C@@]3(Cc3ccc(Br)cc3)C2)cc1`, the melting point worked out at 112 °C. The compound `CC[C@@H](c1ccccc1)N(Cc1ccc(C(=O)OC)c(F)c1)S(=O)(=O)c1ccc(Cl)cc1` registered a melting point of 96 to 98 °C. The result for `COc1cc(C2CCN(C[C@H](O)CO)CC2)ccc1Nc1ncc2ccc(-c3cccc(S(=O)(=O)NC(C)(C)C)c3)n2n1` reads 192 to 220 °C. The result for `Cn1nc(C(F)(F)F)n(-c2ccc(O)cc2)c1=S` reads 150 to 152 °C; that for `CC1(Br)C(Br)=C(Br)C(Br)=C1Br`, 60 to 61 °C. The compound `CC(OC1CCCCO1)C1CCC2C3CC=C4CC(O)CC(O)C4(C)C3CCC12C` (stereo unspecified) gave a melting point of 122 to 124 °C. The result for `O=C(O)c1cn(C2CC2)c2c(F)c(N3CCC(=NO)C3)c(F)c(F)c2c1=O` reads 300 °C; that for `NC(=O)c1c(NC(=O)C2CC2)sc2c(O)c(Br)ccc12`, 235 to 236 °C; that for `O=C(O)CCCc1cc2nc(Cl)ccc2n1S(=O)(=O)c1ccc(Cl)cc1Cl`, 154 to 155 °C. The same measure for `COC(=O)c1nn(Cc2cccc(O)c2)c2c1CCc1cc(OCc3cncnc3)ccc1-2`: 218 to 222 °C; for `COc1cc(OC)nc(Cc2cccnc2NC(=O)OC(C)(C)C)n1`: 89 to 92 °C. `CC1(C)OC(=O)c2c(O)cccc21` returned a melting point of 128 to 134 °C.

In turn, `Cc1ccc(OCC(O)CCCl)cc1` (stereo unspecified) returned a melting point of 62 to 64 °C. As to `CCOc1ccc(-c2nc(CCC(=O)OC)cs2)cc1OCC`, the melting point fell in the range of 58.1 to 58.3 °C.

Consider `C=CC1CCC2C3CCC4=CC(O)C=CC4(C)C3CCC12C` (stereo unspecified), for which the melting point lay in the range of 98 to 128 °C. The result for `CCCc1c(OCCOc2ccc(N)cc2)ccc(C(C)=O)c1O` reads 73 to 74 °C; that for `COc1ccc(CNc2nc(N)n3nc(-c4ccco4)nc3n2)cc1OCc1ccccc1`, 173 to 175 °C; that for `Cc1cc2c(c(C)c1N)C(c1ccc(C(C)C)cc1)CS2` (stereo unspecified), 121 to 122 °C.

`O=C1c2ccc([N+](=O)[O-])cc2COc2cc(Nc3ccc(F)cc3F)ccc21` gave a melting point of 210 to 214 °C. The same measure for `COP(=O)(CC(=O)C(C)(C)Cc1ccccc1)OC`: 39 to 46 °C; for `CC(C)(C)NCCCCOc1ccccc1C(=O)Nc1cccc2[nH]ccc12`: 147 °C. The compound `COC(=O)C(=Cc1c[nH]c2cc(C)ccc12)[N+](=O)[O-]` gave a melting point of 167 to 169 °C.

As to `CCOc1nc(N)nc(C2CC2)n1`, the melting point fell in the range of 103 to 106 °C. The result for `Clc1ccc2[nH]cc([C@H]3CC[C@@H](N4CCN(c5cccc6[nH]ccc56)CC4)CC3)c2c1` reads 283 to 285 °C. For the compound `O=C(OC(=O)c1cn(-c2ccccc2)nc1-c1ccc([N+](=O)[O-])o1)c1cn(-c2ccccc2)nc1-c1ccc([N+](=O)[O-])o1`, the melting point was in the range of 262 to 264 °C. The same measure for `CN1CCC(c2c(O)cc(O)c3c(=O)cc(-c4ccccc4Cl)oc23)C1CO` (stereo unspecified): 228 to 230 °C; for `NS(=O)(=O)c1cscc1C(=O)O`: 222 to 224 °C; for `C(=NNc1ccccc1)c1cccnc1`: 156 °C.

`CCOP(=O)(CNC(CCCc1ccccc1)c1cc(C(C)(C)C)c(O)c(C(C)(C)C)c1)OCC` (stereo unspecified) had a melting point of 93 to 94 °C.

In turn, `Nc1ncnc2sc(CCO)c(-c3ccc(NC(=O)Nc4cccc(C(F)(F)F)c4)cc3)c12` came in with a melting point of 155 to 158 °C. The result for `CC(=O)Nc1ccccc1Oc1ccc(C#N)c(C#N)c1` reads 152 to 154 °C; that for `O=C(O)COc1ccc2cc(-c3sc4ccccc4c3C(=O)Cc3ccccc3)ccc2c1Br`, 170 to 172 °C; that for `Oc1cc(COCc2ccccc2)ncn1`, 102 to 103 °C. Consider `Cc1ccc(-c2ccc3c(c2)C=C(C(=O)NC2CCN(CC4=CCCCCCC4)CC2)CCO3)cc1`, for which the melting point was 148 to 151 °C.

Turning to `CCOC(=O)[C@H](CCc1ccccc1)N(C(=O)OCC(Cl)(Cl)Cl)[C@@H](C)C(=O)O`, the melting point was 73 to 75 °C. The compound `COc1cccc(CCC(=O)CCCCCC(=O)O)c1` yielded a melting point of 41 to 43 °C. `c1csc(-c2cnc(-c3cccs3)s2)c1` displayed a melting point of 93 to 93.8 °C. The same measure for `CCC1Sc2cc(Br)ccc2NC1=O` (stereo unspecified): 100 °C. The result for `Cn1c(COc2ccc(CC3SC(=O)NC3=O)cc2)nc2ccc(Cl)nc21` (stereo unspecified) reads 222 to 223 °C; that for `COCc1c(C=O)ncc2c1c1c(OCc3ccccc3)cccc1n2CC(=O)N(C)CCc1ccccc1`, 192 to 197 °C; that for `CN(C)C1(c2ccccc2)CCC(=CC(=O)N2CCC(c3c[nH]c4ccc(Cl)cc34)CC2)CC1` (stereo unspecified), 115 to 119 °C. The result for `FC(F)(F)Oc1ccc(Nc2cc(N3CCCC3)cc(-c3ccccc3)n2)cc1` reads 141 to 143 °C; that for `CCc1nc(OC)c(NC(=O)N2CCN(c3cccc(F)c3)CC2)cc1C(=O)NC(C)C(=O)Nc1cc(CO)cc(Nc2c3ccccc3nc3ccccc23)c1` (stereo unspecified), 208 to 210 °C. `COc1cc2c(cc1OC)CN(CCCOc1ccc(NC(=O)c3cccc4c(=O)c5cccc(C)c5[nH]c34)c(C)c1)CC2` returned a melting point of 160 °C.

For the compound `CC(=Cc1ccc(O)cc1)C(=O)O`, the melting point lay within 204 to 205 °C. The result for `CC(C(=O)O)c1ccc2nc3c(Cl)cc(Cl)cn3c(=O)c2c1` (stereo unspecified) reads 241 °C; that for `Cc1c(C(=O)Nc2ccc(CN3CCC(N4CCOCC4)CC3)c(C#N)c2)cnn1-c1ccc(Cl)cc1`, 167 to 168 °C; that for `CCCCCc1ccc(-c2c(C(C)C)cc(-c3ccccc3)c(CO)c2C(C)C)nc1`, 56 to 58 °C.

As for `CON=C(C(=O)OC(C)C)c1ccccc1CBr`, the melting point lay within 76 to 77 °C. `COc1cc(CCCO)c(Br)cc1OCc1ccc(Cl)cc1Cl` returned a melting point of 102 to 103 °C. For the compound `CCOC(=O)C(C)=C(C)NC(=O)Nc1cc(C(=O)OC(C)C)c(Cl)cc1F`, the melting point lay in the range of 145 to 147 °C. The compound `CCC(=O)Oc1ccc(NC(=O)OC(C)(C)C)cc1C(=O)O` came in with a melting point of 137 to 142 °C.
